This is an account of results in patent US8748411B2, “Antineoplastic compounds and pharmaceutical compositions thereof” (Centro de Ingenieria Genetica y Biotechnologia, priority 2005, dated 2014).

In test [1] the test system is CK2 optimized consensus substrate sequence RRREEETEEE
The experiment in a line: In vitro CK2 phosphorylation of the optimized consensus substrate peptide […], filter radioactivity. It counts as biochemical. The conditions noted are these: read-out: Inhibitory concentration 50 (IC50). The protocol:
The assay consists in performing an in vitro phosphorylation reaction, using as the substrate the sequence […] (SEQ. ID NO. 1) widely accepted as an optimized consensus phosphorylation domain for the CK2 substrates.
Before the enzymatic reaction the substrate peptide was preincubated one hour at 37° C., with different concentrations of the chemical compounds. The reaction is carried out in a mixture consisting of 50 μl Tris:HCL 25 mM pH 7.5 buffer, 1 μCi of ^32P-γATP, 100 μM ATP, 40 μl E7-GST containing resin, 0.2 M NaCl, 10 mM MgCl and 1 unit of the CK2 enzyme (Promega), allowing it to proceed for 10 minutes at 37° C. After the reaction 5 μl of the reaction mixture were applied to a Whatmann PE-81 paper filter and washed four times with 10 mM H3PO4, finally the paper associated radioactivity was measured and the cpm value for each sample was directly correlated with the CK2 enzymatic activity.
The IC50 values were estimated using each dosage-effect curve.

The subject of the next test is H-125 cells. The test can be described thus: Cytotoxic effect on cultured human tumour cells (MTS, 72 h). It counts as cell-based. The following applies: read-out: Inhibitory concentration 50 (IC50). The protocol:
H-125 cells from a human Non Small Cells Lung Carcinoma were soiled in 96 well plates (Costar) to a 2×10^4 cell/ml density in Dulbecco (DMEM) media (Gibco) and supplemented with Foetal Calf Serum (Gibco). 24 hours later the chemical compounds described herein were added to the cultured media in a range between 0.5 and 100 nM, incubating the mixture for 72 h at 37° C. in 5% CO2, at the end 20 μl of a 1.90 mg/ml MTS solution was added. […] The results are evaluated as growth percentage to controls without any compound, and the IC50 values were estimated using each dosage-effect curve.

The target of test [2] is oncoprotein E7 from Human Papilloma Virus type 16 as GST fusion protein (E7-GST), phosphorylated by CK2 enzyme (Human papillomavirus type 16, UniProt P03129). It counts as biochemical. The conditions noted are these: read-out: Inhibitory concentration 50 (IC50).
Chain of oncoprotein E7 from Human Papilloma Virus type 16 as GST fusion protein (E7-GST), phosphorylated by CK2 enzyme (P03129 whole entry, looked up, the tested form may be a part): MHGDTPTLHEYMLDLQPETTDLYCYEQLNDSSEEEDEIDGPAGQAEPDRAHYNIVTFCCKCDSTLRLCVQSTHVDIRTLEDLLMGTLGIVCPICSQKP
Test [3] deals with H-125 cells tumour implant. Further details: species or system BalbC nude mice. The following applies: mouse, in vivo.
A further test relates to Jurkat cells. The conditions noted are these: cited from earlier work.
Where [4] appears, read: substrate peptide preincubated 1 h at 37° C., reaction 10 minutes at 37° C., 100 μM ATP.
[5] abbreviates: NCI-H125, H-125 cells, 72 h, MTS, absorbance 492 nm.

Read-outs that look alike come from different tables or passages of the source. Where a SMILES comes first, the peptide text is derived from it.

As for `CC1=C/C(=N\NC(N)=O)CC(C)(C)C1` [C30401], the IC50 in test [1] was found to be 62 ± 11 nM; with H-125 cells (NCI-H125, 72 h) it was 103 ± 21 nM; in test [2] it was 26 ± 11 nM.

With `CC(C)NC(=S)Nc1c(N)nc(O)nc1O` [C30402], the IC50 in test [1] (setting [4]) was 74 ± 7 nM; in the test with H-125 cells (setting [5]) it was 98 ± 7 nM; in test [2], 30 ± 5 nM.

As to `CCCCNC(=O)NCc1ccco1` [C30403], the IC50 in test [1] worked out at 58 ± 9 nM; in the test with H-125 cells (NCI-H125, 72 h), 128 ± 9 nM; in test [2] it was 34 ± 9 nM.

As to `O=C(O)CCNC(=O)NCCC(=O)O` [C30404], the IC50 worked out at 61 ± 8 nM in test [1]; 115 ± 18 nM in the test on H-125 cells (NCI-H125, 72 h); 20 ± 8 nM in test [2].

On to `N#CCNC(=O)NCCCl` [C30405], for which the IC50 in test [1] stood at 57 ± 10 nM; in the test with H-125 cells (NCI-H125, 72 h), 104 ± 12 nM; in test [2], 27 ± 10 nM.

As to `C/C(Cc1c[nH]c2ccccc12)=N\NC(N)=S` [C30406], the IC50 is 60 ± 7 nM in test [1]; 97 ± 17 nM with H-125 cells (NCI-H125, 72 h); 32 ± 7 nM in test [2].

In the case of `C/C=C/CC/C(=N\NC(N)=O)c1ccccc1` [C30408], the IC50 in test [1] was 79 ± 5 nM; in the test on H-125 cells (NCI-H125, 72 h) it was 119 ± 8 nM; in test [2], 29 ± 2 nM.

Regarding `O=C(NCO)NC1NC(=O)NC1=O` (stereo not drawn) [C30409], the IC50 in test [1] is 55 ± 6 nM; in the test on H-125 cells (NCI-H125, 72 h), 104 ± 6 nM; in test [2], 31 ± 6 nM.

Consider `Clc1cc(Cl)cc(Nc2nc(C(Cl)(Cl)Cl)nc(C(Cl)(Cl)Cl)n2)c1` [C30410], for which the IC50 in test [1] came to 54 ± 7 nM; in the test on H-125 cells (NCI-H125, 72 h), 114 ± 7 nM; in test [2], 40 ± 9 nM.

Regarding `CC(C)(C)NC(=O)NCCCl` [C30411], the IC50 came to 66 ± 12 nM in test [1]; 126 ± 15 nM in the test on H-125 cells (NCI-H125, 72 h); 27 ± 10 nM in test [2].

Take `CC(C)(NC(=O)NCCCl)c1ccccc1` [C30412]: the IC50 in test [1] was found to be 71 ± 5 nM; in the test on H-125 cells (NCI-H125, 72 h) it was 91 ± 15 nM; in test [2], 30 ± 3 nM.

`CC(C)(CS(C)(=O)=O)NC(=O)NCCCl` [C30413]: the IC50 in test [1] worked out at 64 ± 11 nM; in the test with H-125 cells (NCI-H125, 72 h) it was 130 ± 11 nM; in test [2], 24 ± 9 nM.

Regarding `N=C(N)C(NC=O)C(=O)NCc1ccccc1` (stereo not drawn) [C30414], the IC50 came to 68 ± 9 nM in test [1]; 118 ± 9 nM with H-125 cells (NCI-H125, 72 h); 23 ± 9 nM in test [2].

As to `C/C(COc1ccccc1)=N/NC(N)=S` [C30415], the IC50 in test [1] is 72 ± 10 nM; in the test on H-125 cells (NCI-H125, 72 h), 112 ± 10 nM; in test [2], 33 ± 8 nM.

On to `NCC(=O)NCC(=O)NCC(=O)NCC(=O)O` [C31416] (H-GGGG-OH), for which the IC50 worked out at 69 ± 6 nM in test [1] (setting [4]), 109 ± 6 nM in the test on H-125 cells (setting [5]) and 39 ± 6 nM in test [2].

As for `CN(CC(=O)O)C(=O)CNC(=O)OCc1ccccc1` [C31417] (HELM PEPTIDE1{[O=C(OCc1ccccc1)[*:2]].G.[Sar]}$$$$V2.0), the IC50 was determined as 78 ± 11 nM in test [1]; 118 ± 21 nM in the test on H-125 cells (NCI-H125, 72 h); 28 ± 11 nM in test [2].

In the case of `CC(Br)C(=O)NCC(=O)NCC(=O)O` (stereo not drawn) [C31418], the IC50 in test [1] was 72 ± 5 nM; in the test on H-125 cells (NCI-H125, 72 h) it was 123 ± 15 nM; in test [2], 32 ± 5 nM.

For the molecule `NC(=S)NN=CCn1ccc(=O)n(CC=NNC(N)=S)c1=O` [C31419], the IC50 was 60 ± 8 nM in test [1]; 132 ± 18 nM with H-125 cells (NCI-H125, 72 h); 30 ± 4 nM in test [2].

Consider `NCCC(=O)NCC(=O)NCC(=O)O` [C31420] (HELM PEPTIDE1{[bAla].G.G}$$$$V2.0), for which the IC50 in test [1] amounted to 55 ± 11 nM; with H-125 cells (NCI-H125, 72 h) it was 125 ± 10 nM; in test [2], 25 ± 7 nM.

On to `NNC(=O)CNc1ccc(F)c(C(F)(F)F)c1` [C31421], for which the IC50 stood at 50 ± 8 nM in test [1]; 120 ± 18 nM in the test with H-125 cells (NCI-H125, 72 h); 30 ± 8 nM in test [2].

Consider `NNC(=O)CNc1cccc(I)c1` [C31422], for which the IC50 in test [1] was 74 ± 5 nM; with H-125 cells (NCI-H125, 72 h), 114 ± 5 nM; in test [2], 24 ± 5 nM.

With `CC(C(=O)NCC(O)CO)n1ccnc1[N+](=O)[O-]` (stereo not drawn) [C31423], the IC50 in test [1] is 76 ± 4 nM; in the test on H-125 cells (NCI-H125, 72 h) it was 106 ± 9 nM; in test [2], 26 ± 8 nM.

As to `CCCC(NC(=O)CNC(=O)CN)C(=O)O` (stereo not drawn) [C31424] (HELM PEPTIDE1{G.G.[CCCC(N[*:1])C(=O)O]}$$$$V2.0), the IC50 in test [1] was 62 ± 1 nM; in the test on H-125 cells (NCI-H125, 72 h) it was 162 ± 11 nM; in test [2] it was 32 ± 13 nM.

In the case of `O=C(O)CNC(=S)C(=S)NCC(=O)O` [C32425], the IC50 in test [1] was 65 ± 13 nM; in the test on H-125 cells (NCI-H125, 72 h), 115 ± 12 nM; in test [2], 35 ± 3 nM. Moreover, the antitumoral response entry in test [3] is “significant antitumoral response”.

On to `NCCNCCNCCNCCN` [C33426], for which the IC50 in test [1] was determined as 79 ± 9 nM; in the test on H-125 cells (NCI-H125, 72 h) it was 109 ± 19 nM; in test [2] it was 29 ± 8 nM. The antitumoral response entry in test [3] is “significant antitumoral response”.

Consider `OCCNCCCNc1ccnc2cc(Cl)ccc12` [C34428], for which the IC50 in test [1] worked out at 65 ± 10 nM; in the test on H-125 cells (NCI-H125, 72 h), 165 ± 12 nM; in test [2], 25 ± 7 nM.

In the case of `O=S(=O)(O)Nc1cnc(O)nc1O` [C34429], the IC50 amounted to 61 ± 4 nM in test [1]; 131 ± 4 nM in the test with H-125 cells (NCI-H125, 72 h); 21 ± 12 nM in test [2].

Take `O=C1NC(=O)C(CS(=O)(=O)Nc2cccc(C(F)(F)F)c2)N1` (stereo not drawn) [C34430]: the IC50 in test [1] worked out at 70 ± 4 nM; in the test on H-125 cells (NCI-H125, 72 h), 140 ± 14 nM; in test [2], 30 ± 4 nM.

On to `O=C(NNCCO)c1ccncc1` [C34431], for which the IC50 in test [1] is 55 ± 3 nM; with H-125 cells (NCI-H125, 72 h) it was 155 ± 23 nM; in test [2], 32 ± 6 nM.

Turning to `O=C(O)c1cc(O)nc(SCc2ccc(Cl)cc2Cl)n1` [C34432], the IC50 amounted to 67 ± 7 nM in test [1]; 127 ± 7 nM in the test with H-125 cells (NCI-H125, 72 h); 29 ± 7 nM in test [2].

For the molecule `NCCC(=O)NCc1ccccc1` [C34433], the IC50 in test [1] was 76 ± 8 nM; in the test on H-125 cells (NCI-H125, 72 h), 116 ± 18 nM; in test [2], 26 ± 10 nM.

As to `NNC(=O)CC(O)C(=O)NN` (stereo not drawn) [C34434], the IC50 came to 78 ± 1 nM in test [1]; 108 ± 21 nM in the test with H-125 cells (NCI-H125, 72 h); 28 ± 5 nM in test [2].

Consider `NC(CC(=O)NC(=O)OCc1ccccc1)C(=O)O` (stereo not drawn) [C34435], for which the IC50 in test [1] is 64 ± 6 nM; in the test with H-125 cells (NCI-H125, 72 h), 124 ± 16 nM; in test [2] it was 34 ± 3 nM.

Take `N#CC(Nc1ccccc1C(N)=O)c1ccccc1` (stereo not drawn) [C34436]: the IC50 in test [1] was 66 ± 2 nM; with H-125 cells (NCI-H125, 72 h), 116 ± 22 nM; in test [2], 30 ± 2 nM.

As to `Cn1c(CCNC(=N)CSS(=O)(=O)O)nc2ccccc21` [C34437], the IC50 in test [1] was 71 ± 9 nM; with H-125 cells (NCI-H125, 72 h) it was 131 ± 9 nM; in test [2], 27 ± 4 nM.

As for `CC(O)CNc1nc(N)nc(O)c1[N+](=O)[O-]` (stereo not drawn) [C34438], the IC50 was found to be 81 ± 7 nM in test [1]; 111 ± 17 nM in the test on H-125 cells (NCI-H125, 72 h); 31 ± 1 nM in test [2].

As for `CSc1nc(N)nc2c1ncn2C1CC(CO)C(O)C1O` (stereo not drawn) [C34439], the IC50 in test [1] was 63 ± 12 nM; in the test with H-125 cells (NCI-H125, 72 h), 123 ± 25 nM; in test [2] it was 33 ± 5 nM.

For the molecule `CCOC(=O)c1cc[nH]c1CC(=O)NN` [C34440], the IC50 in test [1] was 56 ± 4 nM; in the test with H-125 cells (NCI-H125, 72 h), 136 ± 32 nM; in test [2], 26 ± 4 nM.

`Brc1c(Br)c(Br)c2[nH]nnc2c1Br` [TBB, 4,5,6,7-tetrabromotriazole]: in the test on Jurkat cells, the “apoptosis and caspase dependent degradation induction” value was “potent apoptosis and caspase dependent degradation inducer”.
